One series has as its target c-Met (h) (Homo sapiens (Human), UniProt P08581). Description: HTRF KinEASE TK kinase inhibition assay, c-Met. The format is biochemical. (Time-resolved FRET reads energy transfer from a long-lived donor to a nearby acceptor.)
A further series concerns the target VEGFR-2 (h) (Homo sapiens (Human), UniProt P35968). Briefly: HTRF KinEASE TK kinase inhibition assay, VEGFR-2. Format: biochemical.
The nature of series [1]: In vivo pharmacokinetic study in rats. How it is done: An In Vivo Pharmacokinetic Study in Rats
For intravenous injection, rats are given a dose of 1 mg/kg. For oral administration, rats are given a dose of 5 mg/kg. […] The whole blood is centrifuged at 8000 rpm for 5 min to collect plasma, which is then transferred to 96-well pallet, and stored at −20° C. till LC-MS/MS testing.
Pharmacokinetic parameters among rats after medication are estimated using the non-compartment model of software WinNonlin.
The peak concentration, Cmax: the actual measurements are used;

A further series relates to U87MG tumor. Description: Tumor xenograft model, U87MG, tumor growth inhibition. Format: in vivo, nude mice (BALB/cA nu/nu). To be noted: 10 mg/kg p.o. QD, day 22.

Chain of VEGFR-2 (h) (P35968 20-1356): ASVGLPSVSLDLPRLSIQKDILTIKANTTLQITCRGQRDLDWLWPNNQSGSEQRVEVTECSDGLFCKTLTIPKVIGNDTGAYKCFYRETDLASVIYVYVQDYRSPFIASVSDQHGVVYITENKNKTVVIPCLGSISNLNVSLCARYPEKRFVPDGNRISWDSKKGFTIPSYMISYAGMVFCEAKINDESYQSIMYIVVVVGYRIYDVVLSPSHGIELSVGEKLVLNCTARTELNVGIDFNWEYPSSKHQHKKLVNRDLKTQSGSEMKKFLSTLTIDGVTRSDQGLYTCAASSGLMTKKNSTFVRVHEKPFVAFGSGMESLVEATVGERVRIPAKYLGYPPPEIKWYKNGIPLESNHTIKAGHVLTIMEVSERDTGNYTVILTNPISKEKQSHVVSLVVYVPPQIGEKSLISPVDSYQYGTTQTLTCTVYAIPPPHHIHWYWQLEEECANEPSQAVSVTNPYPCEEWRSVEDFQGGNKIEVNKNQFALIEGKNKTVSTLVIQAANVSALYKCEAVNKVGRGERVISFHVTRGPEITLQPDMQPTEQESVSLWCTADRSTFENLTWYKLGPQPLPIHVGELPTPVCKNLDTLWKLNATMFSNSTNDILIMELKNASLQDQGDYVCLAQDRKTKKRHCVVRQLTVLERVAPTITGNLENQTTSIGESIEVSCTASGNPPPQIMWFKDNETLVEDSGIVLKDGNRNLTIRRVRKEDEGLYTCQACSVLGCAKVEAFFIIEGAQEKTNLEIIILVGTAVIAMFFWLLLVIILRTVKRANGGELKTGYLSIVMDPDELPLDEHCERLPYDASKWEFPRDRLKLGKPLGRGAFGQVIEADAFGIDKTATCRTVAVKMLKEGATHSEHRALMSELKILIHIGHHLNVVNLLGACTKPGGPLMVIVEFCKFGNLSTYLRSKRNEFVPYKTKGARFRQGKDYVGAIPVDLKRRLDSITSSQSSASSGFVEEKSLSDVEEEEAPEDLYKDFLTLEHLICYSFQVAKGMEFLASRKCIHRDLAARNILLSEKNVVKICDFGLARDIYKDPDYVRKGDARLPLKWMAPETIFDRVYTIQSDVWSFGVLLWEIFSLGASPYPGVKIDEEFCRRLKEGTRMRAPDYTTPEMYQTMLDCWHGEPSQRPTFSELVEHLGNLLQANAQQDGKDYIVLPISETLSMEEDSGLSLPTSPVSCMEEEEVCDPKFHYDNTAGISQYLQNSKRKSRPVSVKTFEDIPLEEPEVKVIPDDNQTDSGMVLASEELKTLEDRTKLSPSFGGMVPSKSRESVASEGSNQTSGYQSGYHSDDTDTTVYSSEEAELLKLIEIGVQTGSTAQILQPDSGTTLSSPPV
Chain of c-Met (h) (P08581 25-1390): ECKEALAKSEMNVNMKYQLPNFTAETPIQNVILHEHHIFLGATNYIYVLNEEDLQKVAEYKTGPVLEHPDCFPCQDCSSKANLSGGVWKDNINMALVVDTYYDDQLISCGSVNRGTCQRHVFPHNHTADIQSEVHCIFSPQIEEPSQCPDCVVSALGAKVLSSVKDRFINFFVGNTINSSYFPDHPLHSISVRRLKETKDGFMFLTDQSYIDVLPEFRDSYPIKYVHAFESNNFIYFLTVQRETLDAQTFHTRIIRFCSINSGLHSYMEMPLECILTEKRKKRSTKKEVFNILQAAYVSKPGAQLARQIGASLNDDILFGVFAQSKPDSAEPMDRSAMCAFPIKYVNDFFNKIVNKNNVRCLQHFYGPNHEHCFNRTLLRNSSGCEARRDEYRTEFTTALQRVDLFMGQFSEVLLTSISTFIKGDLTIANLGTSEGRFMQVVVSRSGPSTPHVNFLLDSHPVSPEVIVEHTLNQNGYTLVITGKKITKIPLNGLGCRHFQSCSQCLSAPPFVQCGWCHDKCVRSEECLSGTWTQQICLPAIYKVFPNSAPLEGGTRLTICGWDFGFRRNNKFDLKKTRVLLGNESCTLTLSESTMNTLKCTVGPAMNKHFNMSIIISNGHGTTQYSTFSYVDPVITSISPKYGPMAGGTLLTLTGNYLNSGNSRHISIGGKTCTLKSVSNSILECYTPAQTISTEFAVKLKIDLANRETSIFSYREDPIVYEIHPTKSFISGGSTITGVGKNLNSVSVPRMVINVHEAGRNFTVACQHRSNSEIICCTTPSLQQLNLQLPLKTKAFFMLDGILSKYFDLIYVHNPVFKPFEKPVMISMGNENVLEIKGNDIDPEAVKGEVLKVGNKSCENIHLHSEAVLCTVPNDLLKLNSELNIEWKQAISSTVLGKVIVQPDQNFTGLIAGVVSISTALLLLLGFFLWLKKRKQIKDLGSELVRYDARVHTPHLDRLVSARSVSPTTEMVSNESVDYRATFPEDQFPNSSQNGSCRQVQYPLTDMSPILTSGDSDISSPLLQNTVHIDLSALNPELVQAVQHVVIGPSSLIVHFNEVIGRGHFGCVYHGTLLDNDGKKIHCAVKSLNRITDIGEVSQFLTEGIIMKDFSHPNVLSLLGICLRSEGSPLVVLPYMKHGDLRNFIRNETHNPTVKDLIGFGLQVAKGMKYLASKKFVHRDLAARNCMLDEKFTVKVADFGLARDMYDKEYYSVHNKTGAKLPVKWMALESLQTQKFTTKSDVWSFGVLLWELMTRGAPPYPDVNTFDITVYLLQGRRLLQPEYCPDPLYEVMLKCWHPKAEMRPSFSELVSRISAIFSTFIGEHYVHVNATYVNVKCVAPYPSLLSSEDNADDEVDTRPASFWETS

Broadly, the IC50 is the point on the concentration scale where inhibition reaches its midpoint. A low value points to greater potency. On to `CC(C)(O)COc1ccc2c(Oc3ccc(Nc4nccc5[nH]cc(-c6ccccc6F)c(=O)c45)cc3F)ccnc2c1` [Example 5, 5-((3-fluoro-4-((7-(2-hydroxy-2-methylpropoxy)quinolin-4-yl)oxy)phenyl)amino)-3-(2-fluorophenyl)-1,6-naphthyridin-4(1H)-one], for which the midpoint of inhibition against c-Met (h), the IC50, lay at 9.4 nM.

Turning to `CC(C)(O)COc1ccc2c(Oc3ccc(Nc4nccc5c4c(=O)c(-c4ccc(F)cc4)cn5CCO)cc3F)ccnc2c1` [Example 17, 5-((3-fluoro-4-((7-(2-hydroxy-2-methylpropoxy)quinolin-4-yl)oxy)phenyl)amino)-3-(4-fluorophenyl)-1-(2-hydroxyethyl)-1,6-naphthyridin-4(1H)-one], the IC50 at c-Met (h) was 40 nM; against VEGFR-2 (h), > 5000 nM.

Compound `COc1cc2c(Oc3ccc(Nc4nccc5[nH]cc(-c6ccc(F)cc6)c(=O)c45)cc3F)ccnc2cc1OCC(C)O` (centres unmarked) [Example 2, 5-((3-fluoro-4-((7-(2-hydroxypropoxy)-6-methoxyquinolin-4-yl)oxy)phenyl)-amino)-3-(4-fluorophenyl)-1,6-naphthyridin-4(1H)-one] returned an IC50 against c-Met (h) of 15.6 nM.

For `CC(C)(O)COc1ccc2c(Oc3ccc(Nc4nccc5c4c(=O)c(-c4ccc(F)cc4)cn5CC4CO4)cc3F)ccnc2c1` (centres unmarked) [Example 15, 5-((3-fluoro-4-((7-(2-hydroxy-2-methylpropoxy)quinolin-4-yl)oxy)phenyl)amino)-3-(4-fluorophenyl)-1-(oxiran-2-ylmethyl)-1,6-naphthyridin-4(1H)-one], the IC50 against c-Met (h) was 22.4 nM; at VEGFR-2 (h), > 5000 nM.

Usually Vz stands for the apparent volume that relates the amount in the body to the concentration in plasma or blood. High values mean extensive tissue distribution, low ones confinement near the circulation. Usually AUC(0-t) stands for exposure summed from dosing to a finite time, without extrapolation to infinity. A high value points to high exposure. In general, Cmax refers to the maximum level reached in the sampled fluid or tissue. One may read the clearance as the rate of elimination divided by the concentration. For orientation: half-life means the time in which the quantity being followed falls by half. A lower half-life goes with fast loss. Broadly, the bioavailability is the share of a dose that reaches the circulation, judged against a reference dose that is usually intravenous. In series [1] (5 mg/kg i.g.), `O=c1c(-c2ccc(F)cc2)c[nH]c2ccnc(Nc3ccc(Oc4ccnc5cc(OCCO)ccc45)c(F)c3)c12` [Comparative compound C, reference compound] yielded a CL of 31.7 mL/min/kg and a Vz of 7.89 L/kg. In series [1] (rat, plasma, iv, 1 mg/kg i.v.), this compound had an AUC(0-t) of 2290 ng·h/mL, a Cmax of 970 ng/mL, a clearance of 4.83 mL/min/kg and a half-life of 2.35 h. The Vd in series [1] (rat, plasma, iv, 1 mg/kg i.v., read-out: Vz) came to 1.21 L/kg. In addition, the bioavailability in series [1] (rat, plasma, oral, 5 mg/kg i.g. vs 1 mg/kg i.v., read-out: F (absolute bioavailability)) came out at 16.2%. Besides, in series [1] (rat, plasma, po, 5 mg/kg i.g.), the AUC(0-t) amounted to 1850 ng·h/mL, the Cmax was determined as 530 ng/mL and the half-life is 2.14 h.

Regarding `Cn1cc(-c2ccc(F)cc2)c(=O)c2c(Nc3ccc(Oc4ccnc5cc(OCC(C)(C)O)ccc45)c(F)c3)nccc21` [Example 10, 5-((3-fluoro-4-((7-(2-hydroxy-2-methylpropoxy)quinolin-4-yl)oxy)phenyl)amino)-3-(4-fluorophenyl)-1-methyl-1,6-naphthyridin-4(1H)-one], the values for the IC50 against c-Met (h) and at VEGFR-2 (h) were 12.7 nM and > 5000 nM, respectively.

For `COc1ccc2c(Oc3ccc(Nc4nccc5[nH]cc(-c6ccc(F)cc6)c(=O)c45)cc3F)ccnc2c1` [Comparative compound A, reference compound], the “Tumor growth inhibition rate, % TGI” value in the series on U87MG tumor was 55.3%.

Turning to `COc1cc2c(Oc3ccc(Nc4nccc5[nH]cc(-c6ccc(F)cc6)c(=O)c45)cc3F)ccnc2cc1OCC(C)(C)O` [Example 1, 5-((3-fluoro-4-((7-(2-hydroxy-2-methylpropoxy)-6-methoxyquinolin-4-yl)oxy)-phenyl)amino)-3-(4-fluorophenyl)-1,6-naphthyridin-4(1H)-one], inhibition at c-Met (h) was half-maximal at 19.4 nM (IC50).

The compound `CC(C)(O)COc1ccc2c(Oc3ccc(Nc4nccc5[nH]cc(-c6cccc(F)c6)c(=O)c45)cc3F)ccnc2c1` [Example 6, 5-((3-fluoro-4-((7-(2-hydroxy-2-methylpropoxy)quinolin-4-yl)oxy)phenyl)amino)-3-(3-fluorophenyl)-1,6-naphthyridin-4(1H)-one] yielded an IC50 at c-Met (h) of 7.9 nM.

On to `CC(C)n1cc(-c2ccc(F)cc2)c(=O)c2c(Nc3ccc(Oc4ccnc5cc(OCC(C)(C)O)ccc45)c(F)c3)nccc21` [Example 13, 5-((3-fluoro-4-((7-(2-hydroxy-2-methylpropoxy)quinolin-4-yl)oxy)phenyl)amino)-3-(4-fluorophenyl)-1-isopropyl-1,6-naphthyridin-4(1H)-one], for which the IC50 is 9 nM at c-Met (h) and > 5000 nM against VEGFR-2 (h).

As to `CC(C)(O)COc1ccc2c(Oc3ccc(Nc4nccc5c4c(=O)c(-c4ccc(F)cc4)cn5C4CC4)cc3F)ccnc2c1` [Example 14, 1-cyclopropyl-5-((3-fluoro-4-((7-(2-hydroxy-2-methylpropoxy)quinolin-4-yl)oxy)-phenyl)amino)-3-(4-fluorophenyl)-1,6-naphthyridin-4(1H)-one], the IC50 against c-Met (h) was 14.3 nM; at VEGFR-2 (h), > 5000 nM.

Compound `COc1cc2nccc(Oc3ccc(Nc4nccc5[nH]cc(-c6ccccc6)c(=O)c45)cc3F)c2cc1OCC(C)(C)O` [Example 9, 5-((3-fluoro-4-((6-(2-hydroxy-2-methylpropoxy)-7-methoxyquinolin-4-yl)oxy)-phenyl)amino)-3-phenyl-1,6-naphthyridin-4(1H)-one] had an IC50 against c-Met (h) of 13.3 nM.

On to `CCCn1cc(-c2ccc(F)cc2)c(=O)c2c(Nc3ccc(Oc4ccnc5cc(OCC(C)(C)O)ccc45)c(F)c3)nccc21` [Example 12, 5-((3-fluoro-4-((7-(2-hydroxy-2-methylpropoxy)quinolin-4-yl)oxy)phenyl)amino)-3-(4-fluorophenyl)-1-propyl-1,6-naphthyridin-4(1H)-one], for which the IC50 at c-Met (h) was 7.2 nM; on VEGFR-2 (h) it was > 5000 nM.

As to `CCn1cc(-c2ccc(F)cc2)c(=O)c2c(Nc3ccc(Oc4ccnc5cc(OCC(C)(C)O)ccc45)c(F)c3)nccc21` [Example 11, 1-ethyl-5-((3-fluoro-4-((7-(2-hydroxy-2-methylpropoxy)quinolin-4-yl)oxy)phenyl)-amino)-3-(4-fluorophenyl)-1,6-naphthyridin-4(1H)-one], the IC50 was 9.5 nM on c-Met (h) and > 5000 nM on VEGFR-2 (h).

With `COCCn1cc(-c2ccc(F)cc2)c(=O)c2c(Nc3ccc(Oc4ccnc5cc(OCC(C)(C)O)ccc45)c(F)c3)nccc21` [Example 16, 5-((3-fluoro-4-((7-(2-hydroxy-2-methylpropoxy)quinolin-4-yl)oxy)phenyl)amino)-3-(4-fluorophenyl)-1-(2-methoxyethyl)-1,6-naphthyridin-4(1H)-one], the IC50 on c-Met (h) was 14.4 nM; against VEGFR-2 (h) it was > 5000 nM.

Compound `COC(C)(C)COc1ccc2c(Oc3ccc(Nc4nccc5[nH]cc(-c6ccc(F)cc6)c(=O)c45)cc3F)ccnc2c1` [Comparative compound D, reference compound] returned an IC50 against VEGFR-2 (h) of 60 nM.

In the case of `COc1cc2c(Oc3ccc(Nc4nccc5[nH]cc(-c6ccccc6)c(=O)c45)cc3F)ccnc2cc1OCC(C)(C)O` [Example 3, 5-((3-fluoro-4-((7-(2-hydroxy-2-methylpropoxy)-6-methoxyquinolin-4-yl)oxy)-phenyl)amino)-3-phenyl-1,6-naphthyridin-4(1H)-one], the IC50 against c-Met (h) worked out at 20.1 nM.

With `COc1cc2nccc(Oc3ccc(Nc4nccc5[nH]cc(-c6ccc(F)cc6)c(=O)c45)cc3F)c2cc1OCC(C)(C)O` [Example 8, 5-((3-fluoro-4-((6-(2-hydroxy-2-methylpropoxy)-7-methoxyquinolin-4-yl)oxy)-phenyl)amino)-3-(4-fluorophenyl)-1,6-naphthyridin-4(1H)-one], it took 16.8 nM to reach half-maximal inhibition against c-Met (h) (IC50).

Take `CC(C)(O)COc1ccc2c(Oc3ccc(Nc4nccc5c4c(=O)c(-c4ccc(F)cc4)cn5Cc4ccccc4)cc3F)ccnc2c1` [Example 18, 1-benzyl-5-((3-fluoro-4-((7-(2-hydroxy-2-methylpropoxy)quinolin-4-yl)oxy)phenyl)-amino)-3-(4-fluorophenyl)-1,6-naphthyridin-4(1H)-one]: the figures for the IC50 on c-Met (h) and at VEGFR-2 (h) were 40.3 nM and > 5000 nM, respectively.

The values are drawn from patent publication US9938274B1, “Naphthyridine compounds, medical combinations and use thereof” (Nanjing Natinefy Pharmatech Co., Ltd., priority 2016, dated 2018).
